Data published in the supplement of paper PMC10949913.

What was measured:
Conditions in all cases: 48 h
CU-ACC2 [1] = experiment: AC50 viability; higher = less potent
Procedure, shortened: (§1)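 AC50 and area under the curve values derive from fitted concentration-response curves, restricted to inhibitory or non-responding curve classes. The curves came from three adrenocortical carcinoma cell lines in 1,536-well plates, each receiving 23 nL of every library compound at 11 concentrations. Viability was read by CellTiter-Glo luminescence after 48 h, normalised per plate to vehicle and empty-well controls.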

NCI-H295R [2] = experiment: AC50 viability; higher = less potent
Procedure, shortened: as §1

CU-ACC1 = experiment: area under concentration-response curve (viability) (AUC (a.u.)); higher = less active
Procedure, shortened: as §1

CU-ACC2 [3] = experiment: as above
Procedure, shortened: as §1

NCI-H295R [4] = experiment: as above
Procedure, shortened: as §1

Compound | AC50 viability (CU-ACC2 [1]) [µM] | AC50 viability (NCI-H295R [2]) [µM] | area under concentration-response curve (CU-ACC1) | area under concentration-response curve (CU-ACC2 [3]) | area under concentration-response curve (NCI-H295R [4])
CCN(CC)CCNc1ccc(C)c2sc3ccccc3c(=O)c12 | 20.9 | 20.9 | 447 | 489 | 456
O=C(Nc1ccc([N+](=O)[O-])cc1Cl)c1cc(Cl)ccc1O | 1.48 | 1.48 | 411 | 471 | 481
COc1ccc([S+](=O)([O-])N(C(C)=O)c2ccccc2/C=C/c2cc[n+]([O-])cc2)cc1 | 20.9 | 5.25 | 482 | 557 | 506
COc1cccc2c1C(=O)c1c(O)c3c(c(O)c1C2=O)C[C@@](O)(C(=O)CO)C[C@@H]3O[C@H]1C[C@H](N)[C@H](O)[C@H](C)O1 | 5.9 | 16.6 | 461 | 485 | 452
O=c1[nH]c2ccccc2n1C1CCN(Cc2ccc(-c3nc4cc5nc[nH]c5cc4nc3-c3ccccc3)cc2)CC1 | 20.9 | 20.9 | 558 | 604 | 492
C[N]1C=NC=C1[C@@](N)(C2=CC=C(Cl)C=C2)C3=CC=C4N(C)C(=O)\C=C(\C5=CC=CC(=C5)Cl)C4=C3 | 0.372 | 0.00105 | – | 94.9 | 88.8
O=C(NCc1ccccc1)c1csc(Nc2ccncn2)n1 | 18.6 | 23.5 | – | 501 | 482
Cc1cc(C(=O)Nc2cc(Nc3ccc4c(/C=C/c5ccccn5)[nH]nc4c3)ccc2F)n(C)n1 | 23.5 | 23.5 | – | 572 | 525
CN(C)C1=CC=C(C=C1)C(C2=CC=C(C=C2)N(C)C)=C/3\C=C/C(/C=C3)=[N+](C)C | 4.17 | 4.17 | – | – | –
CN(C)c1ccc2cc(C(=O)N[C@@H](CCCNC(=N)CCl)C(=O)NCc3ccccc3)ccc2c1 | 0.118 | 11.8 | – | 276 | 247
CCn1cc(-c2ccnc3[nH]c(-c4cccc(CN(C)C)c4)cc23)c(-c2ccc(NC(=O)N(C)C)cc2)n1 | 18.6 | 18.6 | – | 578 | 514
O=C(O)c1ccc2cc(-c3ccc(O)c(C45CC6CC(CC(C6)C4)C5)c3)ccc2c1 | 5.25 | 3.72 | – | 452 | 474
Nc1ncnc2c1c(-c1cccc(OCc3ccccc3)c1)cn2[C@H]1C[C@H](CN2CCCC2)C1 | 14.8 | 18.6 | – | 444 | 358
O=C(Nc1cccc(Cl)c1)Nc1ncc(CCNc2ncnc3ccsc23)s1 | 9.34 | 33.2 | – | 481 | 342
CC(C)(C)c1cc(NC(=O)Nc2ccc(-c3cn4c(n3)sc3cc(OCCN5CCOCC5)ccc34)cc2)no1 | 3.72 | – | 489 | 539 | 511
O=C(Nc1cccc(Nc2ncc(Br)c(NCCc3cnc[nH]3)n2)c1)N1CCCC1 | 16.6 | 23.5 | – | 418 | 397
C[C@@H](Oc1cc(-c2cnn(C3CCNCC3)c2)cnc1N)c1c(Cl)ccc(F)c1Cl | 16.6 | 3.72 | – | 407 | 353
CC(/C=C/C(=O)NO)=C\[C@@H](C)C(=O)c1ccc(N(C)C)cc1 | 1.05 | – | 417 | 463 | 487
CCC[C@H](Nc1nc(-c2ccc(NC(=O)NCC)c(OC)c2)ncc1C)c1cccnc1 | 0.372 | 1.32 | – | 338 | 333
C=C1C[C@@H]2CC[C@@]34C[C@H]5O[C@H]6[C@@H](O3)[C@H]3O[C@H](CC[C@@H]3O[C@H]6[C@H]5O4)CC(=O)C[C@@H]3[C@@H](OC)[C@@H](C[C@H](O)CN)O[C@H]3C[C@H]3O[C@@H](CC[C@@H]1O2)C[C@@H](C)C3=C | 3.4 | 0.00959 | – | 461 | 436
CC(C)Oc1cc(Nc2nc(N[C@@H](C)c3ccc(F)cn3)ncc2Cl)n[nH]1 | 1.32 | – | 325 | 394 | 353
CNC(=O)c1nn(C)c2c1C(C)(C)Cc1cnc(Nc3ccc(N4CCN(C)CC4)cc3)nc1-2 | 7.42 | 18.6 | – | 483 | 473
FC(F)(F)c1ccc(Nc2nc(-c3c(C(F)(F)F)nc4ccccn34)cs2)cc1 | 20.9 | 5.25 | – | 529 | 413
Nc1nc(Nc2ccc3c(c2)CC[C@@H](N2CCCC2)CC3)nn1-c1cc2c(nn1)-c1ccccc1CCC2 | 23.5 | 23.5 | – | 534 | 441

Compound | AC50 viability (CU-ACC2 [1]) [µM] | AC50 viability (NCI-H295R [2]) [µM] | area under concentration-response curve (CU-ACC1) | area under concentration-response curve (CU-ACC2 [3]) | area under concentration-response curve (NCI-H295R [4])
COc1ccc(-c2c(-c3ccc(O)cc3O)n[nH]c2C)cc1 | 0.105 | 0.00296 | – | 224 | 71.5
COc1cc2c(Nc3ccc(NC(=O)c4ccccc4)cc3)ncnc2cc1OCCCN1CCOCC1 | 20.9 | 18.6 | – | 566 | 505
COc1cc2nc(-c3cc(F)ccc3O)nc(N[C@@H]3CNC[C@H]3C(C)(C)O)c2cc1OC | 4.17 | 3.72 | – | 430 | 412
COc1cc(OC)c(NC(=O)Nc2cc(C)on2)cc1Cl | 23.5 | – | 408 | 484 | 432
Cn1ncc(NC(=O)c2nc(-c3c(F)cccc3F)sc2N)c1N1CC[C@@H](N)[C@H](F)CC1 | 18.6 | – | 525 | 500 | 516
CN[C@@H](C)C(=O)N[C@H](C(=O)N1CCC[C@H]1C(=O)Nc1snnc1-c1ccccc1)C1CCCCC1 | 1.66 | – | 413 | 405 | 401
CC(C)COCC(CN(Cc1ccccc1)c1ccccc1)N1CCCC1 (stereo unspecified) | 26.3 | 23.5 | – | 583 | 536
CC(C)(C)C(=O)Oc1ccc([S+](=O)([O-])Nc2ccccc2C(=O)NCC(=O)O)cc1 | 0.105 | – | 318 | 313 | 348
O=C(Nc1ccc2[nH]nc(-c3ccncc3)c2c1)[C@@H]1CCN(CC(=O)N2CCN(c3ccc(-c4ncccn4)cc3)CC2)C1 | 11.8 | – | 444 | 476 | 482
CC1=N[NH]C=C1C2=CC\3=C(S2)C(=O)NC(=N3)\[C@@H]4CC5CCN4CC5 | 10.5 | 23.5 | – | 476 | 529
CC1(C)SCCN([S+](=O)([O-])c2ccc(OCC#CCO)cc2)[C@H]1C(=O)NO | 2.95 | – | 446 | 437 | 421
c1cc(CN2CCCNCCNCCCNCC2)ccc1CN1CCCNCCNCCCNCC1 | 0.0934 | – | 336 | 337 | 294
CCC1=C2CN3C(=O)\C4=C(/C=C3/C2=NC5=CC=C(O)C=C15)[C@@](O)(CC)C(=O)OC4 | 0.468 | – | 401 | 447 | 524
COc1ccc(-c2cc3nccn3c(Nc3ncccc3C(N)=O)n2)cc1OC | 6.61 | – | 436 | 415 | 427
Cc1cc2c(cc1CC(=O)c1sccc1[S+](=O)([O-])Nc1onc(C)c1Cl)OCO2 | 0.105 | 0.00417 | – | 242 | 127
c1ccc(-c2cc(CCC3CCNCC3)c3ccccc3n2)cc1 | 23.5 | 20.9 | – | 561 | 469
NC(=O)c1ccc2[nH]ccc2c1 | 0.59 | – | 345 | 360 | 395
CC(C)(N)c1ccc(-c2nc3ccccc3nc2-c2ccccc2)cc1 | 0.372 | – | 336 | 297 | 354
CN(C)C(=O)c1cc2cnc(Nc3ccc(N4CCNCC4)cn3)nc2n1C1CCCC1 | 33.2 | – | 434 | 439 | 474
CCOc1cc2ncc(C#N)c(Nc3ccc(OCc4ccccn4)c(Cl)c3)c2cc1NC(=O)/C=C/CN(C)C | 16.6 | – | 562 | 572 | 543
CC(C)c1cccc(C(C)C)c1O | 14.8 | – | 362 | 400 | 415
COC1=CC(=C2C(=O)N(COC/3=C/C(=O)N4\C=C/C=C(OCCN5CCCCC5)\C4=N3)[S+]([O-])(=O)C2=C1)C(C)C | 20.9 | 37.2 | – | 584 | 541
CC(C)OC(=O)[C@H](C)N[P@](=O)(OC[C@H]1O[C@@H](N2\C=C/C(=O)NC2=O)[C@](C)(F)[C@@H]1O)OC3=CC=CC=C3 | 5.9 | – | 388 | 414 | 386
